Source: US20210308034A1, “PREBIOTIC COMPOSITIONS AND METHODS FOR MAINTAINING A HEALTHY SKIN MICROBIOTA” (KIMBERLY-CLARK WORLDWIDE, INC., priority 2018, published 2021)

Experiments:
Format in all cases: cell-based
[1] = tested on: Micrococcus luteus (ATCC 49732); assay: Carbohydrate Screening Test Method (Biolog phenotype microarray), Bacteria Code D; conditions: Commensal; carbon microarray plate, OD 600 nm, 36 hr, 33° C.; positive = more than 0.05 OD units above zero; blank cell = not utilized
Description: (§1) After creating desired ratios of various commensal skin bacteria in a healthy skin microbiome, 188 different carbohydrate sources were screened as the next step in determining potential prospects for skin microbiota balancing agents. The screening process was set up to determine which carbohydrate sources promoted commensal and/or pathogenic bacteria as well as to obtain individual and combinations of carbohydrate sources that could serve as microbiota balancing agents that can support or maintain the healthy proportions of commensal skin bacteria of Corynebacterium, Staphylococcus, and Micrococcus. The screening was conducted utilizing Biolog phenotype microarray plates (Hayward, Calif.). Table 1 provides a coded list of the commensal and pathogenic skin bacteria that the carbohydrates were screened against.
(§2) Table 2 provides the results of screening various carbohydrate sources against the commensal and pathogenic bacteria codes listed in Table 1. The Bacteria Codes B, D, E, I, and J are commensal bacteria and are shaded in Table 2 for references purposes. The bacteria codes were each placed in a carbon microarray plate and screened through the Carbohydrate Screening Test Method, as described in the Test Methods section herein. If a particular bacteria code utilized a specific carbohydrate source as described in the Carbohydrate Screening Test Method, then the corresponding cell in Table 2 was marked with a Y (short for “Yes”). […] Many of the carbohydrate sources were utilized by both commensal and pathogenic bacteria, and as such, would not provide an advantage for selective growth of the commensal bacteria. However, some of the carbohydrate sources were only used by commensal bacteria and were identified for further testing as described herein.
(§3) The study employed 10 representative skin bacteria; Staphylococcus epidermidis ATCC 14990, Staphylococcus epidermidis M23864:W2, Staphylococcus aureus ATCC 6538, Staphylococcus aureus ATCC 25904 (Newman), Pseudomonas aeruginosa ATCC 9027, Micrococcus luteus ATCC […], Micrococcus luteus SK58, Klebsiella pneumoniae ATCC BAA-2146, Corynebacterium amycolatum SK46, and Corynebacterium minutissimum ATCC 23348. Cultures were started from freezer bead stocks by placing a single bead into 20 mL of tryptic soy broth (TSB) for all organisms except C. amycolatum SK46 and C. minutissimum ATCC 23348, which were placed into brain heart infusion (BHI) broth. Cultures were grown for about 24 hr at 37° C. except M. luteus ATCC 49732 and M. luteus SK58, which were grown at 30° C. A passage of the culture was made using a sterile swab and streaked onto two M9*2 agar plates to prepare the incubated culture for the phenotype microarray pate according to Table 4. Plates were incubated for about 24 hr at 37° C. except for M. luteus ATCC 49732 and M. luteus SK58, which were incubated at 30° C. for 24 hr.
(§4) All cultures were harvested and washed before inoculation into the carbon microarray plate (BiOLOG, Hayward Calif.), with Biolog Plates PM1 and PM2 each having a source definition of Carbon. The bacteria on the M9*2 agar was suspended via agitation with an inoculating loop in 1 mL of M9*1 media for collection in a 1.7 mL micro centrifuge tube, as noted in Table 4. The bacteria was suspended again in M9*1 media, agitated, and collected into the same 1.7 mL microcentrifuge tube used in the previous step. The tube was centrifuged for 5 minutes at 4,000×G, supernatant decanted, the pellet was resuspended in 1 mL of M9*1 media, and vortex. This washing process was repeated for a total of 4 times.
(§5) A tenfold dilution in M9*1 media was performed using 1 mL of the washed bacterial culture. Of the tenfold dilution 200 μL was placed in an untreated 96-well plate (Falcon, Pasadena Tx.) for an initial optical density (OD) reading at a wavelength of 600 nm. The OD was used to correlate to colony forming units (CFU) per milliliter by using linear regression lines for each organism. […]

[2] = tested on: Pseudomonas aeruginosa (ATCC 9027); conditions: Pathogenic; carbon microarray plate, OD 600 nm, 36 hr, 33° C.; positive = more than 0.05 OD units above zero; blank cell = not utilized
Summary of the method: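 Carbon-source utilisation screen on Biolog PM1/PM2 plates: strain grown in TSB then on M9*2 agar, each ~24 h at 37 °C, washed four times in M9*1 and diluted tenfold. OD600 correlated to CFU/mL; each carbohydrate scored Yes when utilised.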

[3] = tested on: Staphylococcus epidermidis (ATCC 14990); assay: Carbohydrate Screening Test Method (Biolog phenotype microarray), Bacteria Code I; conditions: Commensal; carbon microarray plate, OD 600 nm, 36 hr, 33° C.; positive = more than 0.05 OD units above zero; blank cell = not utilized
Description: as §1, §2, §3, §4, §5

[4] = tested on: Staphylococcus epidermidis (M23864:W2); assay: Carbohydrate Screening Test Method (Biolog phenotype microarray), Bacteria Code J; conditions: Commensal; carbon microarray plate, OD 600 nm, 36 hr, 33° C.; positive = more than 0.05 OD units above zero; blank cell = not utilized
Description: as §1
The Bacteria Codes B, D, E, I, and J are commensal bacteria and are shaded in Table 2 for references purposes. The bacteria codes were each placed in a carbon microarray plate and screened through the Carbohydrate Screening Test Method, as described in the Test Methods section herein. If a particular bacteria code utilized a specific carbohydrate source as described in the Carbohydrate Screening Test Method, then the corresponding cell in Table 2 was marked with a Y (short for “Yes”).
To do so, the respective microarray data for the 79 carbohydrate sources was run through the GrowthRates 2.1 program to obtain growth parameters, such as growth rates and maximum yield data as described by the Belingham Research Institute, Hall, B. G., H. Acar and M. Barlow. 2014 Growth Rates Made Easy. Mol. Biol. Evol. 31:232-238 doi:10.1093/molbev/mst197. The max yield parameters generated were utilized to calculate ratios of tested commensal bacteria. The ratios calculated were compared back to the desired ratios identified above (Corynebacterium to Staphylococcus of 1.3, Corynebacterium to Micrococcus of 1.4, and Staphylococcus to Micrococcus of 1.1).
As an example of this methodology used to calculate the commensal bacteria ratios and the difference between the calculated ratios and the desired ratios, an example code from Table 3 will be described. […] The max yields were then used to calculate ratios the bacteria would reach in a co-culture.

[5] = tested on: Klebsiella pneumoniae (ATCC BAA-2146); conditions: Pathogenic; carbon microarray plate, OD 600 nm, 36 hr, 33° C.; positive = more than 0.05 OD units above zero; blank cell = not utilized
[6] = tested on: Micrococcus luteus (SK58); assay: Carbohydrate Screening Test Method (Biolog phenotype microarray), Bacteria Code E; conditions: Commensal; carbon microarray plate, OD 600 nm, 36 hr, 33° C.; positive = more than 0.05 OD units above zero; blank cell = not utilized
Summary of the method: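 Each commensal strain grown in Biolog carbon phenotype microarray plates with single carbohydrate sources. Growth curves fitted with GrowthRates 2.1 to give growth rate and maximum yield. Max yields used to calculate predicted co-culture ratios between Corynebacterium, Staphylococcus and Micrococcus, compared with desired ratios of 1.3, 1.4 and 1.1.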

[7] = tested on: Corynebacterium jeikum (ATCC 33033); assay: Carbohydrate Screening Test Method (Biolog phenotype microarray), Bacteria Code B; conditions: Commensal; carbon microarray plate, OD 600 nm, 36 hr, 33° C.; positive = more than 0.05 OD units above zero; blank cell = not utilized
Summary of the method: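 Strain from M9*2 agar was suspended in M9*1 medium, washed and inoculated into Biolog PM1/PM2 carbon plates. Carbohydrate use was scored yes/no, and growth rate and maximum yield were derived with GrowthRates 2.1, with max yields used for commensal ratios.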

Row | Compound | Carbohydrate Screening Results, Bacteria Code D [1] | Carbohydrate Screening Results, Bacteria Code I [3] | Carbohydrate Screening Results, Bacteria Code J [4] | also measured
1 | N=C(N)NCCC[C@H](N)C(=O)O [L-Arginine] | Y |  |  | Carbohydrate Screening Results, Bacteria Code F [2]: Y
2 | OC[C@H]1O[C@@](CO)(O[C@H]2O[C@H](CO)[C@@H](O)[C@H](O)[C@H]2O)[C@@H](O[C@H]2O[C@H](CO)[C@@H](O)[C@H](O)[C@H]2O)[C@@H]1O [D-Melezitose] | Y | Y |  | 
3 | O=C1O[C@H](CO)[C@@H](O)[C@H]1O [D-Ribono-1,4-Lactone] | Y |  |  | 
4 | C[C@H](N)C(N)=O [L-Alaninamide] | Y |  | Y | 
5 | N#C[C@H](O[C@@H]1O[C@H](CO[C@@H]2O[C@H](CO)[C@@H](O)[C@H](O)[C@H]2O)[C@@H](O)[C@H](O)[C@H]1O)c1ccccc1 [Amygdalin] | Y |  | Y | 
6 | CC(=O)N[C@@H](CCC(=O)O)C(=O)O [N-Acetyl-L-Glutamic Acid] | Y |  |  | Carbohydrate Screening Results, Bacteria Code F [2]: Y
7 | O=C[C@@H](O)[C@H](O)[C@H](O)CO [D-Arabinose] | Y |  |  | 
8 | OC[C@H]1O[C@H](OC[C@H]2O[C@H](OC[C@H]3O[C@H](O[C@]4(CO)O[C@H](CO)[C@@H](O)[C@@H]4O)[C@H](O)[C@@H](O)[C@@H]3O)[C@H](O)[C@@H](O)[C@H]2O)[C@H](O)[C@@H](O)[C@H]1O [Stachyose] | Y |  |  | Carbohydrate Screening Results, Bacteria Code C [5]: Y; Carbohydrate Screening Results, Bacteria Code F [2]: Y
9 | O=C[C@H](O)[C@@H](O)[C@@H](O)[C@H](O)C(=O)O [D-Galacturonic Acid] | Y |  |  | Carbohydrate Screening Results, Bacteria Code E [6]: Y; Carbohydrate Screening Results, Bacteria Code B [7]: Y
10 | O=C(O)CC(O)C(=O)O (racemic) [D,L-Malic Acid] |  | Y | Y | Carbohydrate Screening Results, Bacteria Code E [6]: Y; Carbohydrate Screening Results, Bacteria Code B [7]: Y
11 | COC(=O)C(C)=O [Methyl Pyruvate] |  | Y | Y | Carbohydrate Screening Results, Bacteria Code B [7]: Y
12 | O=C(O)C(=O)C(C(=O)O)C(O)C(=O)O (stereo not shown) [Oxalomalic Acid] | Y |  | Y | 
13 | OCc1ccccc1O[C@@H]1O[C@H](CO)[C@@H](O)[C@H](O)[C@H]1O [Salicin] | Y |  |  | Carbohydrate Screening Results, Bacteria Code C [5]: Y; Carbohydrate Screening Results, Bacteria Code F [2]: Y
14 | O=C(O)c1ccc(O)cc1 [4-Hydroxy Benzoic Acid] | Y |  |  | 
15 | OC[C@H]1O[C@H](OC[C@H]2OC(O)(CO)[C@@H](O)[C@@H]2O)[C@H](O)[C@@H](O)[C@@H]1O (stereo partly shown) [Palatinose] |  | Y | Y | Carbohydrate Screening Results, Bacteria Code C [5]: Y; Carbohydrate Screening Results, Bacteria Code F [2]: Y
16 | CC(=O)N[C@H]1C(O)O[C@H](CO)[C@H](O)[C@@H]1O (stereo partly drawn) [N-Acetyl-D-Galactosamine] | Y |  |  | 
17 | O=C(CO)[C@@H](O)[C@H](O)[C@@H](O)CO [L-Sorbose] | Y |  |  | Carbohydrate Screening Results, Bacteria Code C [5]: Y; Carbohydrate Screening Results, Bacteria Code F [2]: Y
18 | OC[C@H]1O[C@@H](O[C@@H]2[C@@H](CO)OC(O)(CO)[C@H]2O)[C@H](O)[C@@H](O)[C@H]1O (mixture of isomers) [Lactulose] |  | Y | Y | Carbohydrate Screening Results, Bacteria Code E [6]: Y; Carbohydrate Screening Results, Bacteria Code B [7]: Y
19 | COC1OC(CO)C(O)C(O)C1O [α-Methyl-D-Mannoside] | Y |  |  | 
20 | NCCCCN [Putrescine] |  | Y | Y | Carbohydrate Screening Results, Bacteria Code C [5]: Y
21 | CC(C)C[C@H](N)C(=O)O [L-Leucine] | Y |  |  | 
22 | NC(=O)CCC(=O)O [Succinamic Acid] | Y | Y |  | 
23 | OC[C@@H](O)[C@@H](O[C@@H]1O[C@H](CO)[C@H](O)[C@H](O)[C@H]1O)[C@H](O)[C@@H](O)CO [Lactitol] |  | Y | Y | Carbohydrate Screening Results, Bacteria Code C [5]: Y
24 | OC[C@H]1O[C@@H](O[C@H]2[C@H](O)[C@@H](O)[C@@H](O)O[C@@H]2CO)[C@H](O)[C@@H](O)[C@H]1O [α-D-Lactose] |  | Y | Y | Carbohydrate Screening Results, Bacteria Code E [6]: Y; Carbohydrate Screening Results, Bacteria Code B [7]: Y
25 | O=c1ccn([C@@H]2O[C@H](CO)[C@@H](O)[C@H]2O)c(=O)[nH]1 [Uridine] | Y |  |  | Carbohydrate Screening Results, Bacteria Code B [7]: Y; Carbohydrate Screening Results, Bacteria Code C [5]: Y
26 | NCCO [2-Aminoethanol] | Y |  |  | Carbohydrate Screening Results, Bacteria Code E [6]: Y; Carbohydrate Screening Results, Bacteria Code B [7]: Y
27 | Gelatin | Y |  | Y | 
28 | O=C(O)CC(=O)O [Malonic Acid] | Y |  |  | Carbohydrate Screening Results, Bacteria Code C [5]: Y; Carbohydrate Screening Results, Bacteria Code F [2]: Y
29 | N[C@@H](CO)C(=O)O [L-Serine] |  | Y | Y | Carbohydrate Screening Results, Bacteria Code E [6]: Y; Carbohydrate Screening Results, Bacteria Code B [7]: Y
30 | Chondroitin Sulfate C | Y |  |  | 
